# Patent US12410171B2, “Tropomyosin receptor kinase (TRK) degradation compounds and methods of use” (Cullgen (Shanghai), Inc., priority 2020, dated 2025)
# Where two headings read alike, the source gives them in different places.
# System: KM12 cells
# Assay: KM12 cell viability (CellTiter-Glo)
# Type: cell-based
# Conditions: Homo sapiens, 72 h, KM12 cell viability, CellTiter-Glo, read-out: IC50
# Procedure: KM12 or H358 cells were treated with 1000 nM CPD-053 following an 8-point 3-fold serial dilution for 3 days.
# KM12 cells seeded in 96-well plates were treated with heterobifunctional compounds following a 11-point 3-fold serial dilution for 3 days.
# KM12, H358, HEL, SU-DHL-1 and other cells were cultured at 37° C. with 5% CO2 in RPMI 1640 Medium supplemented with 10% fetal bovine serum. Cells were authenticated using the short tandem repeat (STR) assays. Mycoplasma test results were negative. Stable cell lines were established by lentivirus transduction, selected and maintained in medium containing 1 μg/mL puromycin (Beyotime Biotechnology).
# Cells were seeded at a density of 5000 cells per well in 96-well assay plates and treated with test compounds following a 12-point 2-fold serial dilution or a 8-point 3-fold dilution, or 11-point 3-fold serial dilution. Three days later, cell viability was determined using the CellTiter-Glo assay kit (Promega) according to the manufacturer's instructions. The dose-response curves were determined and IC50 values were calculated using the GraphPad Prism software following a nonlinear regression (least squares fit) method.
# [1] = 11-point 3-fold serial dilution, 3 days
SMILES,IC50 (three days treatment) [µM],IC50 [1] [µM]
"Cc1ncsc1-c1ccc(CNC(=O)[C@@H]2C[C@@H](O)CN2C(=O)[C@@H](NC(=O)COCCOCCOCCOCCOCC(=O)N2CCN(c3cccc(-c4cnc5ccc(N6CCCC6c6cccc(F)c6)nn45)n3)CC2)C(C)(C)C)cc1 (stereo partly drawn) [CPD-003, (25,4R)-1-((S)-2-(tert-butyl)-20-(4-(6-(6-((R)-2-(3-Fluorophenyl)pyrrolidin-1-yl)imidazo[1,2-b]pyridazin-3-yl)pyridin-2-yl)piperazin-1-yl)-4,20-dioxo-6,9,12,15,18-pentaoxa-3-azaicosanoyl)-4-hydroxy-N-(4-(4-methylthiazol-5-yl)benzyl)pyrrolidine-2-carboxamide]",> 1,–
"Cc1ncsc1-c1ccc(CNC(=O)[C@@H]2C[C@@H](O)CN2C(=O)[C@@H](NC(=O)CCOCCOCCOCCOCCOCCC(=O)N2CCN(c3cccc(-c4cnc5ccc(N6CCCC6c6cccc(F)c6)nn45)n3)CC2)C(C)(C)C)cc1 (stereo partly drawn) [CPD-005, (25,4R)-1-((S)-2-(tert-butyl)-22˜ (4-(6-(6-((R)-2˜ (3-Fluorophenyl)pyrrolidin-1-yl)imidazo[1,2-b]pyridazin-3-yl)pyridin-2-yl)piperazin-1-yl)-4,22-dioxo-7,10,13,16,19-pentaoxa-3-azadocosanoyl)-4-hydroxy-N-(4-(4-methylthiazol-5-yl)benzyl)pyrrolidine-2-carboxamide]",> 1,–
"Cc1ncsc1-c1ccc(CNC(=O)[C@@H]2CC(O)CN2C(=O)[C@@H](NC(=O)CCOCCOCCOCCOCCOCCC(=O)N2CCN(c3ccc(C(=O)Nc4n[nH]c5ccc(Cc6cc(F)cc(F)c6)cc45)c(NC4CCOCC4)c3)CC2)C(C)(C)C)cc1 (stereo partly drawn) [CPD-043, (28,4R)-1-((S)-2-(tert-butyl)-22-(4-(4-((5-(3,5-Difluorobenzyl)-1H-indazol-3-yl)carbamoyl)-3-((tetrahydro-2H-pyran-4-yl)amino)phenyl)piperazin-1-yl)-4,22-dioxo-7,10,13,16,19-pentaoxa-3-azadocosanoyl)-4-hydroxy-N-(4-(4-methylthiazol-5-yl)benzyl)pyrrolidine-2-carboxamide]",> 1,–
"O=C1CCC(N2C(=O)c3ccc(NCC(=O)N4CCC(Nc5cccc(C(=O)Nc6cnn7ccc(N8CCC[C@@H]8c8cc(F)ccc8F)nc67)n5)CC4)cc3C2=O)C(=O)N1 (stereo partly drawn) [CPD-460, N-(5-((R)-2-(2,5-difluorophenyl)pyrrolidin-1-yl)pyrazolo[1,5-a]pyrimidin-3-yl)-6-((1-((2-(2,6-dioxopiperidin-3-yl)-1,3-dioxoisoindolin-5-yl)glycyl)piperidin-4-yl)amino)picolinamide]",–,0.032
"Cc1ncsc1-c1ccc(CNC(=O)[C@@H]2C[C@@H](O)CN2C(=O)[C@@H](NC(=O)CCC(=O)N2CCC(Nc3cccc(C(=O)Nc4cnn5ccc(N6CCC[C@@H]6c6cc(F)ccc6F)nc45)n3)CC2)C(C)(C)C)cc1 [CPD-461, N-(5-((R)-2-(2,5-difluorophenyl)pyrrolidin-1-yl)pyrazolo[1,2-a]pyrimidin-3-yl)-6-((1-(4-(((S)-1-((2S,4R)-4-hydroxy-2-((4-(4-methylthiazol-5-yl)benzyl)carbamoyl)pyrrolidin-1-yl)-3,3-dimethyl-1-oxobutan-2-yl)amino)-4-oxobutanoyl)piperidin-4-yl)amino)picolinamide]",–,> 1
"Cc1ncsc1-c1ccc(CNC(=O)[C@@H]2C[C@@H](O)CN2C(=O)[C@@H](NC(=O)CCCCC(=O)N2CCC(Nc3cccc(C(=O)Nc4cnn5ccc(N6CCC[C@@H]6c6cc(F)ccc6F)nc45)n3)CC2)C(C)(C)C)cc1 [CPD-462, N-(5-((R)-2-(2,5-difluorophenyl)pyrrolidin-1-yl)pyrrazolo[1,5-a]pyrimidin-3-yl)-6-((1-(6-(((S)-1-((2S,4R)-4-hydroxy-2-((4-(4-methylthiazol-5-yl)benzyl)carbamoyl)pyrrolidin-1-yl)-3,3-dimethyl-1-oxobutan-2-yl)amino)-6-oxohexanoyl)piperidin-4-yl)amino)picolinamide]",–,> 1
"Cc1ncsc1-c1ccc(CNC(=O)[C@@H]2C[C@@H](O)CN2C(=O)[C@@H](NC(=O)CCCCCCC(=O)N2CCC(Nc3cccc(C(=O)Nc4cnn5ccc(N6CCC[C@@H]6c6cc(F)ccc6F)nc45)n3)CC2)C(C)(C)C)cc1 [CPD-463, N-(5-((R)-2-(2,5-difluorophenyl)pyrrolidin-1-yl)pyrazolo[1,5-a]pyrimidin-3-yl)-6-((1-(8-(((S)-1-((2S,4R)-4-hydroxy-2-((4-(4-methylthiazol-5-yl)benzyl)carbamoyl)pyrrolidin-1-yl)-3,3-dimethyl1-oxobutan-2-yl)amino)-8-oxooctanoyl)piperidin-4-yl)amino)picolinamide]",–,0.443
"Cc1ncsc1-c1ccc(CNC(=O)[C@@H]2C[C@@H](O)CN2C(=O)[C@@H](NC(=O)CCCCCCCCC(=O)N2CCC(Nc3cccc(C(=O)Nc4cnn5ccc(N6CCC[C@@H]6c6cc(F)ccc6F)nc45)n3)CC2)C(C)(C)C)cc1 [CPD-464, N-(5-((R)-2-(2,5-difluorophenyl)pyrrolidin-1-yl)pyrazolo[1,5-a]pyrimidin-3-yl)-6-((1-(10-(((S)-1-((2S,4R)-4-hydroxy-2-((4-(4-methylthiazol-5-yl)benzyl)carbamoyl)pyrrolidin-1-yl)-3,3-dimethyl-1-oxobutan-2-yl)amino)-10-oxodecanoyl)piperidin-4-yl)amino)picolinamide]",–,0.087
"Cc1ncsc1-c1ccc(CNC(=O)[C@@H]2C[C@@H](O)CN2C(=O)[C@@H](NC(=O)CCOCCC(=O)N2CCC(Nc3cccc(C(=O)Nc4cnn5ccc(N6CCC[C@@H]6c6cc(F)ccc6F)nc45)n3)CC2)C(C)(C)C)cc1 [CPD-465, N-(5-((R)-2-(2,5-difluorophenyl)pyrrolidin-1-yl)pyrazolo[1,5-a]pyrimidin-3-yl)-6-((1-(3-(3-(((S)-1-((2S,4R)-4-hydroxy-2-((4-(4-methylthiazol-5-yl)benzyl)carbamoyl)pyrrolidin-1-yl)-3,3-dimethyl-1-oxobutan-2-yl)amino)-3-oxopropoxy)propanoyl)piperidin-4-yl)amino)picolinamide]",–,2.02
Cc1ncsc1-c1ccc(CNC(=O)[C@@H]2C[C@@H](O)CN2C(=O)[C@@H](NC(=O)CCOCCOCCC(=O)N2CCC(Nc3cccc(C(=O)Nc4cnn5ccc(N6CCC[C@@H]6c6cc(F)ccc6F)nc45)n3)CC2)C(C)(C)C)cc1 [CPD-466],–,0.253
"Cc1ncsc1-c1ccc(CNC(=O)[C@@H]2C[C@@H](O)CN2C(=O)[C@@H](NC(=O)CCOCCOCCOCCC(=O)N2CCC(Nc3cccc(C(=O)Nc4cnn5ccc(N6CCC[C@@H]6c6cc(F)ccc6F)nc45)n3)CC2)C(C)(C)C)cc1 [CPD-467, N-(5-((R)-2-(2,5-difluorophenyl)pyrrolidin-1-yl)pyrazolo[1,5-a]pyrimidin-3-yl)-6-((1-((S)-15-((2S,4R)-4-hydroxy-2-((4-(4-methylthiazol-5-yl)benzyl)carbamoyl)pyrrolidine-1-carbonyl)-16,16-dimethyl-13-oxo-4,7,10-trioxa-14-azaheptadecanoyl)piperidin-4-yl)amino)picolinamide]",–,0.343
"Cc1ncsc1-c1ccc(CNC(=O)[C@@H]2C[C@@H](O)CN2C(=O)[C@@H](NC(=O)CCOCCOCCOCCOCCC(=O)N2CCC(Nc3cccc(C(=O)Nc4cnn5ccc(N6CCC[C@@H]6c6cc(F)ccc6F)nc45)n3)CC2)C(C)(C)C)cc1 [CPD-468, N-(5-((R)-2-(2,5-difluorophenyl)pyrrolidin-1-yl)pyrazolo[1,5-a]pyrimidin-3-yl)-6-((1-((S)-18-((2S,4R)-4-hydroxy-2-((4-(4-methylthiazol-5-yl)benzyl)carbamoyl)pyrrolidine-1-carbonyl)-19,19-dimethyl-16-oxo-4,7,10,13-tetraoxa-17-azaicosanoyl)piperidin-4-yl)amino)picolinamide]",–,> 1
"Cc1ncsc1-c1ccc(CNC(=O)[C@@H]2C[C@@H](O)CN2C(=O)[C@@H](NC(=O)CCOCCOCCOCCOCCOCCC(=O)N2CCC(Nc3cccc(C(=O)Nc4cnn5ccc(N6CCC[C@@H]6c6cc(F)ccc6F)nc45)n3)CC2)C(C)(C)C)cc1 [CPD-469, N-(5-((R)-2-(2,5-difluorophenyl)pyrrolidin-1-yl)pyrazolo[1,5-a]pyrimidin-3-yl)-6-((1-((S)-21-((2S,4R)-4-hydroxy-2-((4-(4-methylthiazol-5-yl)benzyl)carbamoyl)pyrrolidine-1-carbonyl)-22,22-dimethyl-19-oxo-4,7,10,13,16-pentaoxa-20-azatricosanoyl)piperidin-4-yl)amino)picolinamide]",–,> 1
"NC(=O)C1CCN(c2cc(CN3CCN(C(=O)CCOCCOCCNc4cccc5c4C(=O)N(C4CCC(=O)NC4=O)C5=O)CC3)ccc2NC(=O)c2coc(N3CCOCC3)n2)CC1 (stereo not drawn) [CPD-486, N-(2-(4-carbamoylpiperidin-1-yl)-4-((4-(3-(2-(2-((2-(2,6-dioxopiperidin-3-yl)-1,3-dioxoisoindolin-4-yl)amino)ethoxy)ethoxy)propanoyl)piperazin-1-yl)methyl)phenyl)-2-morpholinooxazole-4-carboxamide]",–,0.23
"NC(=O)C1CCN(c2cc(CN3CCN(C(=O)CCOCCOCCOCCOCCNc4cccc5c4C(=O)N(C4CCC(=O)NC4=O)C5=O)CC3)ccc2NC(=O)c2coc(N3CCOCC3)n2)CC1 (stereo not drawn) [CPD-488, N-(2-(4-carbamoylpiperidin-1-yl)-4-((4-(1-((2-(2,6-dioxopiperidin-3-yl)-1,3-dioxoisoindolin-4-yl)amino)-3,6,9,12-tetraoxapentadecan-15-oyl)piperazin-1-yl)methyl)phenyl)-2-morpholinooxazole-4-carboxamide]",–,0.147
